Measurements taken from patent US5658944A, “Anti-atherosclerotic aryl compounds” (The University of South Carolina, priority 1990, dated 1997).

Legend:
[1] = system: cholesterol-cholic acid fed rats; experiment: Determination of hypolipdemic activity in cholesterol-cholic acid fed rats; format: in vivo, rat; conditions: serum on fourth day
From the text: (ii) Determination of hypolipdemic activity in cholesterol-cholic acid fed rats
Male Sprague-Dawley rats (CD, Charles River) each weighing 200-300 g were used. Hypercholesterolemia was induced in the rats by administration of a diet enriched to 0.4% cholesterol, 0.2% cholic acid. Prior to the adminstration of the diet, blood samples were collected under halothane anesthesia by cardiac puncture to determine baseline lipid levels. The blood was allowed to clot and serum was obtained for the analysis of total cholesterol, dextran-precipitable lipoproteins cholesterol (VLDL+LDL) and total triglycerides. The rats were divided into groups so that each group had similar average baseline serum lipid levels. Five days after the initial blood sampling, administration of each test compound and the cholesterol-cholic acid-enriched diet was begun. Compounds to be tested by gavage were administered b.i.d. in either 0.5% methyl cellulose or 5% sodium bicarbonate a 9:00 a.m. and 3:00 p.m. for three days and at 9:00 a.m. on the fourth day. Compounds administered as part of the diet were dissolved in ethanol and sprayed on to the diet. The ethonol was allowed to evaporate and the diet given to the rats for three days. On the fourth day, blood samples were collected and the final serum lipid levels determined. All blood samplings were taken after a four-hour fast.

ACAT = experiment: In vitro assay for the inhibition of ACAT activity; format: biochemical, rat; conditions: hepatic microsomes of cholesterol/cholic acid fed male CD rats, [14C]oleoyl-CoA incorporation
Description: (i) In vitro assay for the inhibition of ACAT activity
ACAT activity was determined as described By Ross et al by the incorporation of [^14 C]oleoyl-CoA into cholesterol [^14 C]oleate using hepatic microsomes as the source of both ACAT and cholesterol. Microsomes were prepared from the livers of male CD rats fed a 0.4% cholesterol/0.2% cholic acid diet 3.5 days before sacrifice. Various concentrations of a test compound were preincubated with a 0.5 mg/ml microsomal suspension and after 15 minutes a 50 μg aliquot was removed and incubated with 25 μM of [^14 C]-enriched oleoyl-CoA for 4 minutes. The reaction was terminated by the addition of 1 ml of ethanol and 4 ml of hexane. After shaking, the hexane layer was removed and evaporated to dryness. The hexane extract was then reconstituted in 150 μl of HPLC solvent and injected on to a B&J OD5 Reverse Phase C18 column using an isocratic mobile phase of acetonitrile: isopropanol:heptane (50:40:10) in 0.5% acetic acid at a flow rate of 1.0 ml/min. The product of the reaction, [^14 C]oleoyl cholesterol, was measured using a Flow One radiometric detector. The ACAT IC50 value for each compound was determined from a plot of % inhibition from control vs inhibitor concentration.

## CCCCCCCN(Cc1ccc(OC(C)(C)C(=O)O)cc1)C(=O)Nc1ccc(OC)cc1OC [Synthetic Example 1, 2-(4-{[3-(2,4-dimethoxyphenyl)-1-heptylureido]methyl}phenoxy)-2-methylpropionic acid]
[1]; dose of 25 mg/kg
  reduced LDL-cholestrol by: 55%
[1]; dose of 50 mg/kg
  reduced LDL-cholestrol by: 67%
ACAT
  IC50: 4.5 µM

## CCCCCCCN(CCc1ccc(OC(C)(C)C(=O)O)cc1)C(=O)Nc1ccc(F)cc1F [Synthetic Example 3, 2-(4-{2-[3-(2,4-difluorophenyl)-1-heptylureido]ethyl}phenoxy)-2-methypropionic acid]
[1]; dose of 0.5 mg/kg
  reduced LDL-cholestrol by: 90%
[1]; dose of 2 mg/kg
  reduced LDL-cholestrol by: 74%
ACAT
  IC50: 7.6 µM

## CCCCCCCN(CCc1ccc(OC(C)(C)C(=O)O)cc1)C(=O)Nc1ccc(OC)cc1OC [Synthetic Example 2, 2-(4-{2-[3-(2,4-dimethoxyphenyl)-1-heptylureido]ethyl}phenoxy)-2-methylpropionic acid]
[1]; dose of 5 mg/kg
  reduced LDL-cholestrol by: 41-71%
[1]; dose of 25 mg/kg
  reduced LDL-cholestrol by: 61%
ACAT
  IC50: 3.4 µM
